Drawing on patent US11286228B2, “Stilbene derivative and method for preparing same” (Ozchela Inc., priority 2016, dated 2022), this text covers IC50 and EC50 for 20 compounds.

pEC50, pIC50: −log10 of the molar value. Where two headings read alike, the source gives them in different places. Some results are limits rather than exact numbers.

One assay concerns the target cyclophilin. Put plainly: Cis-trans isomerase inhibitory activity (chymotrypsin-coupled Suc-AAPF-pNA cleavage, absorbance 390 nm). The format is biochemical. The source says: Chymotrypsin cleaves a trans-type alanine-proline peptide bond. When Suc-AAPF-pNA (a peptide substrate) and chymotrypsin are mixed, the trans-type peptide substrate is cleaved and the cis-type peptide substrate remains. The remaining cis-type peptide substrate is converted into a trans form by a cis-trans isomerase and is then cleaved again by chymotrypsin. When the cis-trans isomerase is present, chymotrypsin is able to cleave a larger amount of trans-type peptide substrate within a predetermined period of time, from which the activity of the cis-trans isomerase may be determined. The amount of the cleaved trans-type peptide substrate is measured using absorbance at 390 nm. Cyclophilin has cis-trans isomerase activity, and accelerates the cleavage of trans-type peptide substrate by chymotrypsin. When the stilbene derivatives of the present invention were treated together with cyclophilin, the cleavage of the peptide substrate by chymotrypsin was not observed to accelerate. Thereby, the stilbene derivatives of the invention can be concluded to inhibit the activity of cyclophilin.

For the next assay, the system named is hepatitis C virus. Put plainly: Antiviral activity in HCV replicon cells (Renilla luciferase). The settings on record: HCV replicon cells. The format is cell-based. As to the method:
The antiviral activity of the stilbene derivatives on hepatitis C virus was measured. The replicon cells that stably replicate the hepatitis C virus genome were attached to a culture plate and cultured in a CO2 incubator at 37° C. for 24 hr. The replicon cells cultured for one day were washed with a PBS solution, treated with the compounds of the present invention, and then cultured for 72 hr. The stilbene derivative-treated replicon cells were washed with a cold PBS solution and added with 20 μL of a cell lysis solution so that the cells were lysed in ice for 20 min. 100 μL of a Renilla luciferase substrate was added thereto, after which the luminescence thereof was measured and thus the amount of the hepatitis C virus genome was estimated. The amount of the hepatitis C virus genome in the stilbene derivative-treated replicon cells according to the present invention relative to the amount of the hepatitis C virus genome in dimethylsulfoxide (DMSO)-treated replicon cells is shown.
Compounds 1 to 155 of Tables 1 to 10 may be grouped as follows based on the antiviral activity (EC50) values: […]
A general note: In antiviral work, replicon cells carry a viral genome segment that copies itself.

Assay [1] deals with mitochondria obtained from hepatocytes. Kind of assay: Inhibitory activity on calcium-induced mitochondrial swelling (absorbance 520 nm). The source says: Cyclophilin is a key protein for forming permeability transition pores (PTP) in mitochondria. When permeability transition pores are formed, mitochondria swell, whereby the outer membrane thereof ruptures and thus cell death progresses. Such mitochondrial dysfunction causes many diseases including neurodegenerative diseases, cancer, and the like. Cyclosporine, a known cyclophilin inhibitor, is capable of preventing the formation of permeability transition pores to thus suppress mitochondrial swelling.
The mitochondrial swelling test was performed as follows. Specifically, the hepatocytes were disrupted using a Dounce tissue grinder. The disrupted cells were centrifuged at 700×g for 10 min and the supernatant was transferred into a new tube. The supernatant was centrifuged at 12,000×g for 15 min, thereby obtaining mitochondria.
When the extracted mitochondria were added with calcium, they swelled, which may be observed by measuring the absorbance at 520 nm. The stilbene derivatives are effective at inhibiting mitochondrial swelling due to calcium.
The activity of Compounds 1 to 155 of Tables 1 to 10 on inhibiting mitochondrial swelling may be determined based on IC50 values, and may be grouped as follows: […]

The mark [2] stands for this setting: cyclophilin, chymotrypsin, Suc-AAPF-pNA, read-out: Test Example 1: cis-trans isomerase inhibitory activity (IC50).
Where [3] appears, read: Hepatitis C virus, 72 hr, Renilla luciferase, relative to DMSO, read-out: Test Example 3: antiviral activity (EC50).
Setting [4] is: Hepatocyte, calcium-induced swelling of extracted mitochondria, read-out: Test Example 4: inhibiting mitochondrial swelling (IC50).
Setting [5] is: 72 hr, Renilla luciferase, relative to DMSO, read-out: Test Example 3: antiviral activity (EC50).
[6] abbreviates: calcium-induced swelling of extracted mitochondria, read-out: Test Example 4: inhibiting mitochondrial swelling (IC50).

A word on the pIC50: it is −log10 of the IC50, conventionally taken in molar units. A word on the pEC50: it is the negative decadic logarithm of the EC50, by convention in mol/L.

For `CC(C)(C)Cc1ccc(C=Cc2ccccc2C(=O)OCc2ccccc2)cc1` [Compound 76], the negative logarithm of the IC50 (pIC50) on cyclophilin (setting [2]) is no less than 7.70; in assay [1] (setting [4]), greater than 5.30. In addition, the pEC50 with hepatitis C virus (setting [3]) is greater than 6.30.

On to `CCCCOC(=O)c1ccccc1C=C(N)c1ccc(CC2CCCC2)cc1` [Compound 109], for which the values for the negative-log IC50 (pIC50) (at cyclophilin (setting [2]); in assay [1] (setting [4])) were 6.70 to 7.70 and 4.30 to 5.30, respectively. Besides, the negative logarithm of the EC50 (pEC50) with hepatitis C virus (setting [3]) was 5.30 to 6.30.

For `CC(C)(C)Cc1ccc(C=Cc2ccccc2C(=O)O)cc1` [Compound 134], the values for the pIC50 (at cyclophilin (setting [2]); in assay [1] (setting [4])) were no less than 7.70 and greater than 5.30, respectively. The negative-log EC50 (pEC50) in the assay with hepatitis C virus (setting [3]) is greater than 6.30.

For the compound `CC(C)OC(=O)c1ccccc1C=Cc1ccc(CC(C)(C)C)cc1` [Compound 73], the negative-log IC50 (pIC50) on cyclophilin (setting [2]) was no less than 7.70; in assay [1] (setting [4]) it was greater than 5.30. Further, in the assay on hepatitis C virus (setting [3]), the negative-log EC50 (pEC50) is greater than 6.30.

Turning to `CC(C)OC(=O)c1ccccc1C=C(Br)c1ccc(CC(C)(C)C)cc1` [Compound 118], the pIC50 is no less than 7.70 on cyclophilin (setting [2]) and greater than 5.30 in assay [1] (setting [4]). Also, in the assay on hepatitis C virus (setting [3]), the negative-log EC50 (pEC50) was greater than 6.30.

Turning to `Cc1ccc(C(C#N)=Cc2ccccc2C(=O)O)cc1C` [Compound 13], the pIC50 was 5.70 to 6.70 on cyclophilin (setting [2]) and 3.30 to 4.30 in assay [1] (setting [6]). For the same compound, in the assay with hepatitis C virus (setting [5]), the pEC50 was 4.30 to 5.30.

Turning to `COC(=O)c1ccccc1C=Cc1ccc(CC2CCCCC2)cc1` [Compound 127], the pIC50 at cyclophilin (setting [2]) was 6.70 to 7.70; in assay [1] (setting [4]), 4.30 to 5.30. Besides, the pEC50 with hepatitis C virus (setting [3]) was 5.30 to 6.30.

As for `N#CC(=Cc1ccccc1C(=O)O)c1ccc(CCC2CCCCC2)cc1` [Compound 60], the results for the pIC50 (on cyclophilin (setting [2]); in assay [1] (setting [4])) were no less than 7.70 and greater than 5.30, respectively. In addition, the pEC50 with hepatitis C virus (setting [3]) is greater than 6.30.

Turning to `CCCCOC(=O)c1cc(C)ccc1C=C(I)c1ccc(CC(C)(C)C)cc1` [Compound 115], the negative-log IC50 (pIC50) is no less than 7.70 at cyclophilin (setting [2]) and greater than 5.30 in assay [1] (setting [4]). Also, the negative logarithm of the EC50 (pEC50) in the assay with hepatitis C virus (setting [3]) is greater than 6.30.

As for `CCCCOC(=O)c1ccccc1C=C(Br)c1ccc(CC(C)CC)cc1` (stereo not drawn) [Compound 122], the pIC50 on cyclophilin (setting [2]) is 6.70 to 7.70; in assay [1] (setting [4]), 4.30 to 5.30. Also, in the assay with hepatitis C virus (setting [3]), the pEC50 is 5.30 to 6.30.

As for `CCCCOC(=O)c1ccccc1C=C(C)c1ccc(CC2CCCC2)cc1` [Compound 95], the pIC50 at cyclophilin (setting [2]) was 6.70 to 7.70; in assay [1] (setting [4]), 4.30 to 5.30. Also, the negative logarithm of the EC50 (pEC50) in the assay with hepatitis C virus (setting [3]) was 5.30 to 6.30.

As for `CCCOC(=O)c1ccccc1C=C(C)c1ccc(CC(C)(C)C)cc1` [Compound 87], the figures for the pIC50 (at cyclophilin (setting [2]); in assay [1] (setting [4])) were 6.70 to 7.70 and 4.30 to 5.30, respectively. The pEC50 with hepatitis C virus (setting [3]) was 5.30 to 6.30.

Turning to `CCCCOC(=O)c1ccccc1C=C(N)c1ccc(CC(C)CC)cc1` (stereo not drawn) [Compound 108], the pIC50 at cyclophilin (setting [2]) is 6.70 to 7.70; in assay [1] (setting [4]), 4.30 to 5.30. The negative logarithm of the EC50 (pEC50) in the assay with hepatitis C virus (setting [3]) was 5.30 to 6.30.

`CCCCOC(=O)c1ccccc1C=Cc1ccc(CC2CCCC2)cc1` [Compound 79]: the negative logarithm of the IC50 (pIC50) at cyclophilin (setting [2]) is 6.70 to 7.70; in assay [1] (setting [4]) it was 4.30 to 5.30. The negative logarithm of the EC50 (pEC50) in the assay with hepatitis C virus (setting [3]) was 5.30 to 6.30.

On to `CC(C)(C)CCc1ccccc1C=C(C#N)c1ccc([N+](=O)[O-])cc1` [Compound 43], for which the pIC50 at cyclophilin (setting [2]) is 6.70 to 7.70; in assay [1] (setting [4]) it was 4.30 to 5.30. Further, the pEC50 in the assay on hepatitis C virus (setting [3]) is 5.30 to 6.30.

Consider `CCCCOC(=O)c1cnccc1C=Cc1ccc(CC(C)(C)C)cc1` [Compound 146], for which the negative logarithm of the IC50 (pIC50) at cyclophilin (read-out: Test Example 1: cis-trans isomerase inhibitory activity (IC50) group) is 6.70 to 7.70; in assay [1] (Hepatocyte, read-out: Test Example 4: activity on inhibiting mitochondrial swelling (IC50) group), 4.30 to 5.30. Also, the pEC50 in the assay with hepatitis C virus (Hepatitis C virus, read-out: Test Example 3: antiviral activity (EC50) group) is 5.30 to 6.30.

Take `CCOc1ccc(C(C#N)=Cc2ccccc2C(=O)O)cc1` [Compound 17]: the pIC50 at cyclophilin (setting [2]) was 5.70 to 6.70; in assay [1] (setting [6]), 3.30 to 4.30. Further, the negative logarithm of the EC50 (pEC50) in the assay with hepatitis C virus (setting [5]) is 4.30 to 5.30.

As to `CCCCOC(=O)c1ccccc1C=C(C)c1ccc(CC(C)CC)cc1` (stereo not drawn) [Compound 94], the values for the negative logarithm of the IC50 (pIC50) (on cyclophilin (setting [2]); in assay [1] (setting [4])) were 6.70 to 7.70 and 4.30 to 5.30, respectively. Besides, the negative-log EC50 (pEC50) in the assay with hepatitis C virus (setting [3]) was 5.30 to 6.30.

For the compound `CCCCOC(=O)c1ccccc1C=C(C)c1ccc(CC2CCCCC2)cc1` [Compound 96], the negative-log IC50 (pIC50) was 6.70 to 7.70 on cyclophilin (setting [2]) and 4.30 to 5.30 in assay [1] (setting [4]). In the assay with hepatitis C virus (setting [3]), the negative-log EC50 (pEC50) was 5.30 to 6.30.

As for `CC(C)(C)Cc1ccc(C(N)=Cc2ccccc2C(=O)OCC2CCCCC2)cc1` [Compound 105], the results for the negative-log IC50 (pIC50) (at cyclophilin (setting [2]); in assay [1] (setting [4])) were 6.70 to 7.70 and 4.30 to 5.30, respectively. Also, the negative logarithm of the EC50 (pEC50) with hepatitis C virus (setting [3]) was 5.30 to 6.30.
